Results published in US8912220B2 (priority 2009, dated 2014).

Each molecule was assayed against human 5-HT2C(VSV) (Homo sapiens, UniProt P28335, I156V/I160V/N158S) (assay: cell-based).
Sequence of human 5-HT2C(VSV) (P28335 33-458 I156V/N158S/I160V limits assumed): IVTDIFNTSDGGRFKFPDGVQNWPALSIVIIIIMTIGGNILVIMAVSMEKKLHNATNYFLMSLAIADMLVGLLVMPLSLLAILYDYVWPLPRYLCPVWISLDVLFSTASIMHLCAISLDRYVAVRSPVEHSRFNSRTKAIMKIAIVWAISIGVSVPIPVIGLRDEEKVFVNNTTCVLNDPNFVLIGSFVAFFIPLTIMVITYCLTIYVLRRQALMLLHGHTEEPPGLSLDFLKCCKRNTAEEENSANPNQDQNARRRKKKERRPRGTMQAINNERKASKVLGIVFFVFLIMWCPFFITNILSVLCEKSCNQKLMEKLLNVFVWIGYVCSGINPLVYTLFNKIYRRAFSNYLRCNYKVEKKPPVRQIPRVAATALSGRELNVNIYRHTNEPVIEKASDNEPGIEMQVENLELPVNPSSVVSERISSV
With `CNCCc1cn(C)c2ccc(F)c(OCc3ccc(Cl)c(OC(F)(F)F)c3)c12` [33-49, 2-(4-(4-chloro-3-(trifluoromethoxy)benzyloxy)-5-fluoro-1-methyl-1H-indol-3-yl)-N-methylethanamine] the EC50 was < 10 µM.
With `CCn1cc(CCNCCc2cccc(C(F)(F)F)c2)c2c(OCc3ccccc3)cc(F)cc21` [31-13, 2-(4-(benzyloxy)-1-ethyl-6-fluoro-1H-indol-3-yl)-N-(3-(trifluoromethyl)phenethyl)ethanamine] the EC50 was 0.001 to 0.5 µM.
`COc1ccc(F)c2c1c(CCN1CCOCC1)cn2C` [11-9, 4-(2-(7-fluoro-4-methoxy-1-methyl-1H-indol-3-yl)ethyl)morpholine] was tested, and the EC50 was 0.001 to 0.5 µM.
`CCN(CC)C(=O)Cn1cc(CCN)c2c(O)c(F)ccc21` [19-6, 2-(3-(2-aminoethyl)-5-fluoro-4-hydroxy-1H-indol-1-yl)-N,N-diethylacetamide] was tested, and the EC50 was < 10 µM.
`COc1ccc(F)c2c1c(C(C)CN)cn2C` (centres unmarked) [9-5, 2-(7-fluoro-4-methoxy-1-methyl-1H-indol-3-yl)propan-1-amine] gave an EC50 of 0.001 to 0.5 µM.
Molecule `CN(C)CCc1cn(Cc2ccccc2)c2c(F)ccc(OCc3ccccc3)c12` [7-2, 2-(1-benzyl-4-(benzyloxy)-7-fluoro-1H-indol-3-yl)-N,N-dimethylethanamine] has an EC50 of 0.5 to 10 µM.
For `COc1ccc(-c2ccsc2)c2c1c(CCN(C)C)cn2C` [6-13, 2-(4-methoxy-1-methyl-7-(thiophen-3-yl)-1H-indol-3-yl)-N,N-dimethylethanamine], the EC50 was 0.5 to 10 µM.
`CNCCc1cn(C)c2ccc(F)c(OCc3ccc(S(C)(=O)=O)cc3)c12` [33-38, 2-(5-fluoro-1-methyl-4-(4-(methylsulfonyl)benzyloxy)-1H-indol-3-yl)-N-methylethanamine] gave an EC50 of 0.001 to 0.5 µM.
For `CNCCc1cn(C)c2ccc(F)c(OCc3ccccc3C(F)(F)F)c12` [33-31, 2-(5-fluoro-1-methyl-4-(2-(trifluoromethyl)benzyloxy)-1H-indol-3-yl)-N-methylethanamine], the EC50 was 0.001 to 0.5 µM.
`Cc1cccc(CNCCc2cn(C)c3ccc(F)c(O)c23)n1` [17-20, 5-fluoro-1-methyl-3-(2-(((6-methylpyridin-2-yl)methyl)amino)ethyl)-1H-indol-4-ol] was tested, and the EC50 was < 10 µM.
`CN(C)CCc1cn(Cc2ccc3ccccc3c2)c2c(F)ccc(OCc3ccccc3)c12` [7-6, 2-(4-(benzyloxy)-7-fluoro-1-(naphthalen-2-ylmethyl)-1H-indol-3-yl)-N,N-dimethylethanamine] gave an EC50 of 0.001 to 0.5 µM.
`COc1ccc(CCCO)c2c1c(CCN(C)C)cn2C` [25-4, 3-(3-(2-(dimethylamino)ethyl)-4-methoxy-1-methyl-1H-indol-7-yl)propan-1-ol] was tested, and the EC50 was 0.5 to 10 µM.
With `CCn1cc(CCNCc2cccc(C(F)(F)F)c2)c2c(O)cc(F)cc21` [31-12, 1-ethyl-6-fluoro-3-(2-(3-(trifluoromethyl)benzylamino)ethyl)-1H-indol-4-ol] the EC50 was 0.001 to 0.5 µM.
In the case of `CCCn1cc(CCNC)c2c(OCc3ccc(F)cc3)c(F)ccc21` [33-15, 2-(5-fluoro-4-(4-fluorobenzyloxy)-1-propyl-1H-indol-3-yl)-N-methylethanamine], the EC50 is reported as 0.001 to 0.5 µM.
`CCCn1cc(CCN)c2c3c(ccc21)OCCO3` [40-6, 2-(7-propyl-3,7-dihydro-2H-[1,4]dioxino[2,3-e]indol-9-yl)ethanamine] was tested, and the EC50 was < 10 µM.
`CNCCc1cn(C)c2ccc(F)c(OCc3cccc(C(F)(F)F)c3)c12` [33-21, 2-(5-fluoro-1-methyl-4-(3-(trifluoromethyl)benzyloxy)-1H-indol-3-yl)-N-methylethanamine] gave an EC50 of 0.001 to 0.5 µM.
With `CNCCc1cn(C)c2ccc(F)c(OCc3cccc4ccccc34)c12` [33-36, 2-(5-fluoro-1-methyl-4-(naphthalen-1-ylmethoxy)-1H-indol-3-yl)-N-methylethanamine] the EC50 was 0.001 to 0.5 µM.
`NCCc1cn(CCOc2ccccc2)c2ccc(F)c(O)c12` [19-4, 3-(2-aminoethyl)-5-fluoro-1-(2-phenoxyethyl)-1H-indol-4-ol] showed an EC50 of 0.001 to 0.5 µM.
`CCOc1c(F)ccc2c1c(CCNCc1ccccc1)cn2C` [30-15, N-benzyl-2-(4-ethoxy-5-fluoro-1-methyl-1H-indol-3-yl)ethanamine] showed an EC50 of 0.001 to 0.5 µM.
`CNCCc1cn(C)c2c(F)cc(CCC3CCCCC3)c(OC)c12` [23-5, 2-(5-(2-cyclohexylethyl)-7-fluoro-4-methoxy-1-methyl-1H-indol-3-yl)-N-methylethanamine] was tested, and the EC50 was 0.001 to 0.5 µM.
Work on `CN(C)CCc1cn(C)c2ccc(F)c(OCc3cccs3)c12` [1-20a, 2-(5-fluoro-1-methyl-4-(thiophen-2-ylmethoxy)-1H-indol-3-yl)-N,N-dimethylethanamine] yielded an EC50 of 0.001 to 0.5 µM.
With `CCn1cc(CCNC(C)c2ccccc2)c2c(OC)ccc(F)c21` (centres unmarked) [20-8, 2-(1-ethyl-7-fluoro-4-methoxy-1H-indol-3-yl)-N-(1-phenylethyl)ethanamine] the EC50 was 0.001 to 0.5 µM.
For `CCn1cc(CCNCCc2ccccc2)c2c(OC)ccc(F)c21` [20-7, 2-(1-ethyl-7-fluoro-4-methoxy-1H-indol-3-yl)-N-phenethylethanamine], the EC50 was 0.001 to 0.5 µM.
`CCOc1c(F)ccc2c1c(CCNCc1ccccc1Cl)cn2C` [30-17, N-(2-chlorobenzyl)-2-(4-ethoxy-5-fluoro-1-methyl-1H-indol-3-yl)ethanamine] showed an EC50 of 0.001 to 0.5 µM.
For `CCn1cc(CCNCC(C)c2ccccc2)c2c(O)cc(F)cc21` (centres unmarked) [39-6, 1-ethyl-6-fluoro-3-(2-(2-phenylpropylamino)ethyl)-1H-indol-4-ol], the EC50 was 0.001 to 0.5 µM.
Molecule `CCn1cc(CCNCc2cccc(C(F)(F)F)c2)c2c(OCc3ccccc3)cc(F)cc21` [31-8, 2-(4-(benzyloxy)-1-ethyl-6-fluoro-1H-indol-3-yl)-N-(3-(trifluoromethyl)benzyl)ethanamine] has an EC50 of 0.5 to 10 µM.
In the case of `COc1ccc(-c2ccc[nH]2)c2c1c(CCN(C)C)cn2C` [6-10, 2-(4-methoxy-1-methyl-7-(1H-pyrrol-2-yl)-1H-indol-3-yl)-N,N-dimethylethanamine], the EC50 is reported as 0.5 to 10 µM.
In the case of `CNCCc1cn(C)c2ccc(F)c(OCc3ccc(Cl)cc3Cl)c12` [33-48, 2-(4-(2,4-dichlorobenzyloxy)-5-fluoro-1-methyl-1H-indol-3-yl)-N-methylethanamine], the EC50 is reported as < 10 µM.
Molecule `CCOc1c(F)ccc2c1c(CCNC1Cc3ccccc3C1)cn2C` [30-16, N-(2-(4-ethoxy-5-fluoro-1-methyl-1H-indol-3-yl)ethyl)-2,3-dihydro-1H-inden-2-amine] has an EC50 of 0.001 to 0.5 µM.
Work on `COc1c(F)ccc2c1c(CCNCCCCc1ccccc1)cn2C` [17-13, N-(2-(5-fluoro-4-methoxy-1-methyl-1H-indol-3-yl)ethyl)-4-phenylbutan-1-amine] yielded an EC50 of 0.001 to 0.5 µM.
In the case of `COc1c(F)ccc2c1c(CCN1CCNCC1)cn2C` [17-10, 5-fluoro-4-methoxy-1-methyl-3-(2-(piperazin-1-yl)ethyl)-1H-indole], the EC50 is reported as 0.5 to 10 µM.
For `CNCCc1cn(C)c2ccc(F)c(OCc3ccc(Cl)cc3)c12` [33-20, 2-(4-(4-chlorobenzyloxy)-5-fluoro-1-methyl-1H-indol-3-yl)-N-methylethanamine], the EC50 was 0.001 to 0.5 µM.
With `Cn1cc(CCNCc2ccccc2)c2c(O)c(F)ccc21` [33-47, 3-(2-(benzylamino)ethyl)-5-fluoro-1-methyl-1H-indol-4-ol] the EC50 was 0.001 to 0.5 µM.
`CNCCc1cn(C)c2ccc(F)c(OCc3ccc(C)cc3)c12` [33-27, 2-(5-fluoro-1-methyl-4-(4-methylbenzyloxy)-1H-indol-3-yl)-N-methylethanamine] was tested, and the EC50 was 0.001 to 0.5 µM.
In the case of `CNCCc1cn(C)c2ccc(F)c(OCCc3ccccc3C)c12` [33-17, 2-(5-fluoro-1-methyl-4-(2-methylphenethoxy)-1H-indol-3-yl)-N-methylethanamine], the EC50 is reported as 0.001 to 0.5 µM.
In the case of `COc1ccc(-c2cccnc2)c2c1c(CCN(C)C)cn2C` [6-14, 2-(4-methoxy-1-methyl-7-(pyridin-3-yl)-1H-indol-3-yl)-N,N-dimethylethanamine], the EC50 is reported as 0.001 to 0.5 µM.
`CNCCc1cn(C)c2ccc(F)c(OCc3ccccc3-c3ccccc3)c12` [33-30, 2-(4-(biphenyl-2-ylmethoxy)-5-fluoro-1-methyl-1H-indol-3-yl)-N-methylethanamine] was tested, and the EC50 was 0.001 to 0.5 µM.
For `CCn1cc(CCN(C)C)c2c(OCc3ccc(OC)cc3)cc(F)cc21` [1-15b, 2-(1-ethyl-6-fluoro-4-(4-methoxybenzyloxy)-1H-indol-3-yl)-N,N-dimethylethanamine], the EC50 was 0.001 to 0.5 µM.
`CCn1cc(CCNCCc2ccccc2)c2c(OCc3ccccc3)cc(F)cc21` [26-9, 2-(4-(benzyloxy)-1-ethyl-6-fluoro-1H-indol-3-yl)-N-phenethylethanamine] gave an EC50 of 0.5 to 10 µM.
`CCn1cc(CCNCCc2cccc(C(F)(F)F)c2)c2c(O)cc(F)cc21` [26-10, 1-ethyl-6-fluoro-3-(2-(3-(trifluoromethyl)phenethylamino)ethyl)-1H-indol-4-ol] gave an EC50 of 0.001 to 0.5 µM.
With `CCOc1c(F)ccc2c1c(CCNCc1cccc(C)c1)cn2C` [30-20, 2-(4-ethoxy-5-fluoro-1-methyl-1H-indol-3-yl)-N-(3-methylbenzyl)ethanamine] the EC50 was 0.001 to 0.5 µM.
Molecule `CCn1cc(CCNCc2ccccc2C)c2c(OC)ccc(F)c21` [20-9, 2-(1-ethyl-7-fluoro-4-methoxy-1H-indol-3-yl)-N-(2-methylbenzyl)ethanamine] has an EC50 of 0.001 to 0.5 µM.
`COc1ccc(CNCCc2cn(C)c3ccc(F)c(OC)c23)cc1OC` [34-8, N-(3,4-dimethoxybenzyl)-2-(5-fluoro-4-methoxy-1-methyl-1H-indol-3-yl)ethanamine] was tested, and the EC50 was 0.001 to 0.5 µM.
Work on `CCn1cc(CCN(C)C)c2c(OCc3cccc(C(F)(F)F)c3)cc(F)cc21` [1-16b, 2-(1-ethyl-6-fluoro-4-(3-(trifluoromethyl)benzyloxy)-1H-indol-3-yl)-N,N-dimethylethanamine] yielded an EC50 of 0.5 to 10 µM.
`CCn1cc(CCN2C[C@@H]3C[C@H]2CN3Cc2ccccc2)c2c(O)cc(F)cc21` [31-7, 3-(2-((1S,4S)-5-benzyl-2,5-diazabicyclo[2.2.1]heptan-2-yl)ethyl)-1-ethyl-6-fluoro-1H-indol-4-ol] was tested, and the EC50 was 0.5 to 10 µM.
`CNCCc1cn(C)c2ccc(F)c(OCCc3ccccc3Cl)c12` [33-19, 2-(4-(2-chlorophenethoxy)-5-fluoro-1-methyl-1H-indol-3-yl)-N-methylethanamine] showed an EC50 of 0.5 to 10 µM.
`CCn1cc(CCN(C)C)c2c(OCc3ccc(Cl)cc3)cc(F)cc21` [1-10b, 2-(4-(4-chlorobenzyloxy)-1-ethyl-6-fluoro-1H-indol-3-yl)-N,N-dimethylethanamine] was tested, and the EC50 was 0.5 to 10 µM.
